Test results from US20220062391A1, “ENHANCING EPITHELIAL OR ENDOTHELIAL BARRIER FUNCTION” (UNIVERSITY OF ROCHESTER, priority 2019, published 2022).

Key:
[1] = tested on: ATI cells; test: TEER of alveolar epithelial monolayers on transwell plates; format: cell-based, rat
Method: Primary rat alveolar epithelial type II cells were isolated using an IgG-panning approach as described by Dobbs (74). Briefly, lungs from Sprague Dawley rats (200-250 g) were surgically removed and perfused, lavaged, and treated with 1 mg/ml of elastase (WORTHINGTON BIOCHEMICAL, Lakewood, N.J.) to release the epithelial cells. Next, lung lobes were separated, cut, minced, filtered and spin down at 1500 rpm for 15 minutes. The cells were resuspended with DMEM without FBS and transferred into two IgG plates. After incubation at 37° C. for one hour, non-adhered cells (predominately ATII cells) were transferred to a new tube and centrifuged at 1500 rpm for 15 minutes. The cells were resuspended in DMEM containing 10% FBS and plated on fibronectin coated plates. To coat the plates with fibronectin, 20 μg/ml of fibronectin from bovine plasma (F1141, SIGMA-ALDRICH, St. Louis, Mo.) was added to 100 mm culture plates (using 3 ml) or the upper chamber of the transwell plates (using 400 μl). Plates were left at 37° C. for 3 hours. Residual solution was removed, and plates were dried in a tissue culture hood for at least 30 minutes before cells were added. 16HBE14o-human bronchial epithelial cells were cultured in Dulbecco's modified Eagle's medium as previously reported (18).
Prior to the assay, cells cultured on 12-well transwell plates (12 mm transwell with 0.4 μm pore polyester membrane insert; CORNING, Corning, N.Y.) were moved to the tissue culture hood for 15 minutes to allow the medium equilibrate to room temperature. TEER was measured using an epithelial voltmeter (EVOM2; WORLD PRECISION INSTRUMENTS, Sarasota, Fla.). Three readings were recorded and averaged for each well. To calculate TEER, the resistance of the fibronectin-coated insert without cells (blank resistance) was subtracted from the measured resistance, then multiplied by 1.12 cm^2 to account for the surface area of the insert.

[2] = tested on: ATI cells; test: Permeability to fluorescent dextran tracers; format: cell-based, rat; conditions: 1 μg/ml
Method: Permeability to fluorescent tracers was measured using a modified protocol previous described (76). […] Five hundred microliters of freshly prepared solution containing 100 μg/mL of 40 kD FITC-dextran and 100 μg/mL of 31(D Texas Red-dextran were added to the apical compartment. One thousand microliters of P buffer was added to the bottom chamber. After 2 hours incubation at 37° C., 100 μl of the basal medium was collected and the fluorescence of the transported dextran was measured with a SPECTRAMAX M5 multi-mode microplate reader (MOLECULAR DEVICES, San Jose, Calif.). The excitation wavelength and emission wavelength are 492 nm and 520 nm for FITC and 596 nm and 615 nm for Texas-red, respectively. The quantity of tracer was calculated by comparison with a standard curve. A permeability coefficient was determined using the following equation (77): Pc (cm/min)=V/(A×Co)×(C/T) where V is volume in the lower compartment (1 ml), A is the surface area of the membrane (1.12 cm^2 for the 12-well transwell used here), Co is the dextran concentration in the upper compartment at time 0 (0.1 mg/ml), and C is the dextran concentration in the lower compartment at time T of sampling (2 hours).

[3] = tested on: LPS-injured lungs; test: Pulmonary permeability by Evan's blue dye leakage; format: in vivo, mouse; conditions: LPS 5 mg/kg intratracheal, compared with naïve mice
Method: (§1) Male C57BL/6 mice (9-11 weeks) were anesthetized with isoflurane and 100 μg of each individual plasmid were delivered in 50 μl of 10 mM Tris-HCl (pH 8.0), 1 mM EDTA, and 140 mM NaCl, to mouse lungs by aspiration (when both β1 and MRCKα were delivered, 100 μg of each were administered prior to electroporation) as previously described in Lin, X., et al., Gene Ther 23: 489-99. Eight, 10 msec square wave pulses at a field strength of 200 V/cm were immediately applied using cutaneous electrophysiology electrodes (MEDTRONIC, Redmond, Wash.) placed on the mouse chest with an ECM830 electroporator (BTX, HARVARD […], Holliston, Mass.). All LPS-challenged mice received 5 mg/kg of LPS (Escherichia coli 055:B5, 15,000,000 endotoxin units/mg protein; SIGMA-ALDRICH, St. Louis, Mo.) in 50 μl of phosphate-buffered saline (PBS) by aspiration, one day before gene transfer (n=5-11 mice/group). […]
Pulmonary permeability was measured by Evan's blue dye (EBD) leakage from blood into airways (Baluk, P., et al., Br J Pharmacol 126: 522-8 and Mammoto, A., et al., Nat Commun 4: 1759). […] 24 hrs later, EBD was extracted in formamide (FISHER […]) at 37° C. for 24 hrs and quantified by measuring spectrophotometrically at 620 nm and 740 nm, correcting by using formula E620 (EBD)=E620−(1.426×E740+0.030) (Standiford, T. J., et al., J Immunol 155: 1515-24).

[4] = tested on: LPS-injured lungs; test: Western blot of occludin and ZO-1 in mouse lungs; format: in vivo; conditions: LPS 5 mg/kg
Method: as §1
Western blots were performed as previously described in Lin, X., et al. Am J Respir Crit Care Med 183: 1689-97. […] After incubation with secondary antibody and development, bands were detected using the CHEMIDOC Imaging System (BIO-RAD, Hercules, Calif.) and quantified using the IMAGE STUDIO™ LITE software (LI-COR, Lincoln, Nebr.) or the IMAGE LAB software (BIO-RAD, Hercules, Calif.).

[5] = tested on: ATI cells; test: Western blot of tight junction proteins in transfected ATI cells; format: cell-based, rat; conditions: 24 hours
Method: (§2) Primary rat alveolar epithelial type II cells were isolated using an IgG-panning approach as described by Dobbs (74). Briefly, lungs from Sprague Dawley rats (200-250 g) were surgically removed and perfused, lavaged, and treated with 1 mg/ml of elastase (WORTHINGTON BIOCHEMICAL, Lakewood, N.J.) to release the epithelial cells. Next, lung lobes were separated, cut, minced, filtered and spin down at 1500 rpm for 15 minutes. The cells were resuspended with DMEM without FBS and transferred into two IgG plates. After incubation at 37° C. for one hour, non-adhered cells (predominately ATII cells) were transferred to a new tube and centrifuged at 1500 rpm for 15 minutes. The cells were resuspended in DMEM containing 10% FBS and plated on fibronectin coated plates. […]
(§3) Cells were lysed with reporter lysis buffer (lx, PROMEGA), supplemented with protease inhibitor (COMPLETE, Mini, EDTA-free tablets; ROCHE, Basel, Switzerland) and phosphatase inhibitor (PHOSSTOP Phosphatase Inhibitor Cocktail; ROCHE, Basel, Switzerland). […] After incubation with secondary antibody and development, bands were detected on film (BIOMAX MR film; […] HEALTH, Rochester, N.Y.) or using the CHEMIDOC IMAGING SYSTEM (BIO-RAD, Hercules, Calif.) and quantified using the IMAGE STUDIO™ LITE software (LI-COR, Lincoln, Nebr.) or the IMAGE LAB SOFTWARE (BIO-RAD, Hercules, Calif.).

[6] = tested on: 16HBE14o-cells; test: Doxycycline-inducible β1 expression, immunoblot in 16HBE14o- cells; format: cell-based, human; conditions: 24 hours post transfection
Method: as §2, with “minutes.” for “minutes. The cells were resuspended in DMEM containing 10% FBS and plated on fibronectin coated plates.”
as §3
Given that the β1 subunit increased protein expressions of tight junctions in ATI cells, their localization in these cells was analyzed. […]

[7] = molecular target: MRCKα of primary rat alveolar type I (ATI) cells (rat) (UniProt O54874); test: cell-based or functional assay
[8] = tested on: mouse lungs; test: Alveolar fluid clearance (AFC) in live mice; format: in vivo; conditions: two days after gene transfer, or 10^−8 mol/L in the instillation solution
Method: as §1, with “Mass.).” for “Mass.). All LPS-challenged mice received 5 mg/kg of LPS (Escherichia coli 055:B5, 15,000,000 endotoxin units/mg protein; SIGMA-ALDRICH, St. Louis, Mo.) in 50 μl of phosphate-buffered saline (PBS) by aspiration, one day before gene transfer (n=5-11 mice/group).”
The method used in this study was performed in live mice as previously described in Lin, X., et al., Gene Ther 23: 489-99 and Mutlu, G. M., et al., Circ Res 94: 1091-100. […] Protein concentration in the aspirate was assessed using a Bradford assay (BIO-RAD LABORATORIES, Hercules, Calif.) and AFC was calculated using following equation: AFC=1−(C0/C30), where C0, is the protein concentration of the instillate before instillation, and C30 is the protein concentration of the sample obtained at the end of 30 minutes of mechanical ventilation. Clearance is expressed as a percentage of total instilled volume cleared/30 minutes. […]

Sequence of UniProt O54874 (O54874 whole entry): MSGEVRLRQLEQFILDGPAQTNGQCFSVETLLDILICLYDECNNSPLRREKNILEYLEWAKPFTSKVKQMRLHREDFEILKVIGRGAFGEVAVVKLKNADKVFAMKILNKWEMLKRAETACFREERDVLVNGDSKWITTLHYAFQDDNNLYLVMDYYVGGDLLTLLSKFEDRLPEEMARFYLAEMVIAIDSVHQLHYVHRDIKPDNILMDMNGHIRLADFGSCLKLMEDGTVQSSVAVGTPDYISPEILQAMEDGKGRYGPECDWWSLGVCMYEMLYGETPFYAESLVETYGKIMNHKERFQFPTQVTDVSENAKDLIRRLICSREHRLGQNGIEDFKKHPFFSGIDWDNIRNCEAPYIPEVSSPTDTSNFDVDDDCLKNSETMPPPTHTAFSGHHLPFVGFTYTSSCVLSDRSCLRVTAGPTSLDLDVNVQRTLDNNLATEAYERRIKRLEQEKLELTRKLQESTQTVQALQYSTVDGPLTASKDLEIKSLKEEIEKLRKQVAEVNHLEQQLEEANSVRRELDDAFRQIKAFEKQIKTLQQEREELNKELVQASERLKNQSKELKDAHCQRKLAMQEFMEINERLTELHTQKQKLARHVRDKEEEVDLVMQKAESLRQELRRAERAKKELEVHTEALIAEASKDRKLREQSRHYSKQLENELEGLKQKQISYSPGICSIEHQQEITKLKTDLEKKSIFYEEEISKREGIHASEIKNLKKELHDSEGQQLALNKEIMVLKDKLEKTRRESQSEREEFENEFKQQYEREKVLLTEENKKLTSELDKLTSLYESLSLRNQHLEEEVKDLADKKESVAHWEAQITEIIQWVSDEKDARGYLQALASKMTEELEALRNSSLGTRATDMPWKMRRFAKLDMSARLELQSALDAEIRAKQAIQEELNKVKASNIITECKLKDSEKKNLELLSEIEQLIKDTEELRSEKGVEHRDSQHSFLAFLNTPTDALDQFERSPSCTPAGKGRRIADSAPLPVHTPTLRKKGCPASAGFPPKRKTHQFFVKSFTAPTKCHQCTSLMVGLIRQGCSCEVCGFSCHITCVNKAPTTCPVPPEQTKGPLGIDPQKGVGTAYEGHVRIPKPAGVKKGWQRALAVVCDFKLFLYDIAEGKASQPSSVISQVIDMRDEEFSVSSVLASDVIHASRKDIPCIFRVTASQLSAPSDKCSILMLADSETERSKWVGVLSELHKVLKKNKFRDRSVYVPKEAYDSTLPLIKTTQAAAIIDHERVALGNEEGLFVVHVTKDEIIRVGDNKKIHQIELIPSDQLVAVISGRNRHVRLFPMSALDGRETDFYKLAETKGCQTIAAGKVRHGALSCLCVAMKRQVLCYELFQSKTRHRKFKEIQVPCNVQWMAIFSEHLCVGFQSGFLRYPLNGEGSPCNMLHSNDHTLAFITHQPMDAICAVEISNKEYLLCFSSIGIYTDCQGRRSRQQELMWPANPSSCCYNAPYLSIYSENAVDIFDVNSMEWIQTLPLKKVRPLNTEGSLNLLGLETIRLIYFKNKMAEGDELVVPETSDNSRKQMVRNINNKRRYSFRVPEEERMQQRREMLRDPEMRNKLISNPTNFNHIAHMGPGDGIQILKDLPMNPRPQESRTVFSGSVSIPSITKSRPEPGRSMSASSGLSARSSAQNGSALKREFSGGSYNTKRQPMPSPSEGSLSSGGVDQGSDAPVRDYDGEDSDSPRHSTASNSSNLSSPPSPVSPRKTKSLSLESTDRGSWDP

O=C(Nc1cn[nH]c1-c1ccccn1)c1nn(C2CCNCC2)cc1Cl [BDP5290]
baseline TEER ([1]; 2 μM inhibitor): decreased | β1 subunit-induced increase of barrier integrity (TEER) under MRCKα inhibition ([1]; 2 μM inhibitor): prevented β1 subunit-induced increase of barrier integrity

lipopolysaccharide
permeability to 4 kD Dextran after lipopolysaccharide [2]: increased permeability | increase of pulmonary leakage in response to LPS [3]: three- to four-fold | levels of ZO-1 and occludin in lungs after LPS injury [4]: reduced levels | TEER after lipopolysaccharide ([1]; 1 μg/ml, 24 hours): decreased TEER

Cc1ccc2c(c1)C(=O)C1(O)CCN(c3ccccc3)C1=N2 (stereo not drawn) [blebbistatin]
β1-induced upregulation of occludin in presence of blebbistatin ([5]; ATI cells transfected with rat β1, blebbistatin 1, 10 or 100 uM): significantly suppress the upregulation of occludin | β1-induced increase in TEER under myosin II inhibition ([1]; pretreatment 20 μM): prevented the increase in TEER

C[C@@H]1O[C@@H](O[C@H]2C[C@@H](O)[C@]3(CO)[C@H]4[C@H](O)C[C@]5(C)[C@@H](C6=CC(=O)OC6)CC[C@]5(O)[C@@H]4CC[C@]3(O)C2)[C@H](O)[C@H](O)[C@H]1O [ouabain]
β1-induced upregulation of occludin in presence of ouabain ([5]; ATI cells transfected with rat β1, ouabain 10 nM, 100 nM or 1000 nM): did not block the upregulation of occludin

C[C@H]1c2cccc(O)c2C(=O)C2=C(O)[C@]3(O)C(=O)C(C(N)=O)=C(O)[C@@H](N(C)C)[C@@H]3[C@@H](O)[C@@H]21 [doxycycline]
doxycycline concentration of maximum induction of β1 subunit [6]: 1000 ng/mL

rat Na+, K+-ATPase β1 subunit (from UniProt P07340 1-304)
phosphorylation of myosin light chain 2 (MLC2) at Ser19, western blot after β1 subunit overexpression in ATI cells [7]: 2 fold

CCC(NC(C)C)C(O)c1ccc(O)c2[nH]c(=O)ccc12 (stereo not drawn) [procaterol, Procaterol]
increase of AFC [8]: 145%
